Here are results for six compounds from patent US5998442A, “Benzo [B] thiophene compounds, and compositions for treating bone loss, and hyperlipidemia” (Eli Lilly and Company, priority 1997, dated 1999).

A word on the pIC50: it is the IC50 on a negative log10 scale, so that one unit is a factor of ten.

pIC50: −log10 of the molar value. Like-named read-outs stand apart in the source and are kept apart here.

In assay [1] the test system is serum cholesterol, ovariectomized rats. Briefly: Serum cholesterol in ovariectomized rats (4 days daily oral dosing). The format is in vivo, rat (female Sprague Dawley). To be noted: Rattus norvegicus, 96 h, read-out: Serum Cholesterol (% decrease vs. OVX); for inhibition in vivo at 0.1 mg/kg: 0.1 mg/kg PO; for inhibition in vivo at 1 mg/kg: 1.0 mg/kg PO; for inhibition in vivo at 10 mg/kg: 10.0 mg/kg PO. Here is the method:
(§1) In the examples illustrating the methods, a postmenopausal model was used in which effects of different treatments upon circulating lipids were determined.
(§2) Seventy-five day old female Sprague Dawley rats (weight range of 200 to 225 g) were obtained from Charles River Laboratories (Portage, Mich.). The animals were either bilaterally ovariectomized (OVX) or exposed to a Sham surgical procedure at Charles River Laboratories, and then shipped after one week. Upon arrival, they were housed in metal hanging cages in groups of 3 or 4 per cage and had ad libitum access to food (calcium content approximately 0.5%) and water for one week. Room temperature was maintained at 22.2°±1.70° C. with a minimum relative humidity of 40%. The photoperiod in the room was 12 hours light and 12 hours dark.
(§3) After a one week acclimation period (therefore, two weeks post-OVX) daily dosing with test compound was initiated. […] Animals were dosed daily for 4 days. Following the dosing regimen, animals were weighed and anesthetized with a ketamine: Xylazine (2:1, V:V) mixture and a blood sample was collected by cardiac puncture. The animals were then sacrificed by asphyxiation with CO2, the uterus was removed through a midline incision, and a wet uterine weight was determined.
Blood samples were allowed to clot at room temperature for 2 hours, and serum was obtained following centrifugation for 10 minutes at 3000 rpm. Serum cholesterol was determined using a Boehringer Mannheim Diagnostics high performance cholesterol assay. Briefly the cholesterol was oxidized to cholest-4-en-3-one and hydrogen peroxide. The hydrogen peroxide was then reacted with phenol and 4-aminophenazone in the presence of peroxidase to produce a p-quinone imine dye, which was read spectrophotemetrically at 500 nm. Cholesterol concentration was then calculated against a standard curve. The entire assay was automated using a Biomek Automated Workstation. […]
(§4) The data presented in Table 1 below reflects the response of 5 to 6 rats per treatment.

For assay [2], the system named is uterus, ovariectomized rats. As to the kind of experiment: Uterine weight in ovariectomized rats (4 days daily oral dosing). The format is in vivo, rat (female Sprague Dawley). To be noted: Rattus norvegicus, 96 h, read-out: Uterine weight (% increase vs. OVX); for change in vivo at 0.1 mg/kg: 0.1 mg/kg PO; for change in vivo at 1 mg/kg: 1.0 mg/kg PO; for change in vivo at 10 mg/kg: 10.0 mg/kg PO. Here is the method:
as §1, §2, §3
This uterine response to estrogen is well recognized in the art.
as §4

In assay [3] the test system is Uterine Eosinophil Peroxidase (EPO). As to the kind of experiment: Uterine Eosinophil Peroxidase (EPO) Assay in ovariectomized rats. The format is in vivo, rat (female Sprague Dawley). Also noted: Uterine EPO (Vmax): unit not given here.
Description: as §2, §3
Uteri were kept at 4° C. until time of enzymatic analysis. The uteri were then homogenized in 50 volumes of 50 mM Tris buffer (pH-8.0) containing 0.005% Triton X-100. Upon addition of 0.01% hydrogen peroxide and 10 mM O-phenylenediamine (final concentrations) in Tris buffer, increase in absorbance was monitored for one minute at 450 nm. The presence of eosonophils in the uterus is an indication of estrogenic activity of a compound. The maximal velocity of a 15 second interval was determined over the initial, linear portion of the reaction curve.
As is expressed in the data below, estrogenicity also was assessed by evaluating the adverse response of eosinophil infiltration into the uterus.
as §4

Assay [4] deals with Distal Femur Metaphysis, ovariectomized rats. Briefly: Osteoporosis Test Procedure: distal femur metaphysis X-ray image analysis. Format: in vivo, rat. The following applies: 35 days. Here is the method: Following the General Preparation Procedure, infra, the rats were treated daily for 35 days (6 rats per treatment group) and sacrificed by carbon dioxide asphyxiation on the 36th day. The 35 day time period was sufficient to allow maximal reduction in bone density, measured as described herein. At the time of sacrifice, the uteri were removed, dissected free of extraneous tissue, and the fluid contents were expelled before determination of wet weight in order to confirm estrogen deficiency associated with complete ovariectomy. […] The uteri were then placed in 10% neutral buffered formalin to allow for subsequent histological analysis. The right femurs were excised and digitilized x-rays generated and analyzed by an image analysis program (NIH image) at the distal metaphysis. The proximal aspect of the tibiae from these animals were also scanned by quantitative computed tomography. […] Distal femur metaphysis and proximal tibiae data presented in Tables 2 and 3 below, respectively are the results of formula I compound treatments compared to intact and ovariectomized test animals. Results are reported as percent protection relative to ovariectomy.

Assay [5] relates to MCF-7 breast adenocarcinoma cells. As to the kind of experiment: MCF-7 Proliferation Assay (tritiated thymidine). The format is cell-based. To be noted: for pIC50: Homo sapiens, MCF7, 48 hours, read-out: IC50. Here is the method: MCF-7 breast adenocarcinoma cells (ATCC HTB 22) were maintained in MEM (minimal essential medium, phenol red-free, Sigma, St. Louis, Mo.) supplimented with 10% fetal bovine serum (FBS) (V/V), L-glutamine (2 mM), sodium pyruvate (1 mM), HEPES {(N-[2-hydroxyethyl]piperazine-N'-[2-ethanesulfonic acid]10 mM}, non-essential amino acids and bovine insulin (1 ug/mL) (maintenance medium). Ten days prior to assay, MCF-7 cells were switched to maintenance medium supplemented with 10% dextran coated charcoal stripped fetal bovine serum (DCC-FBS) assay medium) in place of 10% FBS to deplete internal stores of steroids. MCF-7 cells were removed from maintenance flasks using cell dissociation medium (Ca++/Mg++ free HBSS (phenol red-free) supplemented with 10 mM HEPES and 2 mM EDTA). Cells were washed twice with assay medium and adjusted to 80,000 cells/mL. Approximately […] (8,000 cells) were added to flat-bottom microculture wells (Costar 3596) and incubated at 37° C. in a 5% CO2 humidified incubator for 48 hours to allow for cell adherence and equilibration after transfer. Serial dilutions of drugs or DMSO as a diluent control were prepared in assay medium and […] to triplicate microcultures followed by […] assay medium for a final volume of […]. After an additional 48 hours at 37° C. in a 5% CO2 humidified incubator, microcultures were pulsed with tritiated thymidine (1 uCi/well) for 4 hours. Cultures were terminated by freezing at -70° C. for 24 hours followed by thawing and harvesting of microcultures using a Skatron Semiautomatic Cell Harvester. Samples were counted by liquid scintillation using a Wallac BetaPlace b counter. Results in Table 4 below show the IC50 for certain compounds of the instant invention. […]

Consider `O=C(c1ccc(OCCN2CCCCC2)cc1)c1c(-c2ccc(O)c(F)c2)sc2cc(O)ccc12` [Example 2, [2-(3-fluoro-4-hydroxyphenyl)-6-hydroxybenzo[b]thien-3-yl][4-[2-(1-piperidinyl)ethoxy]phenyl]methanone], for which the inhibition in vivo at 0.01 mg/kg in assay [1] (0.01 mg/kg PO) was 21.7%. In addition, the inhibition in vivo at 0.1 mg/kg in assay [1] worked out at 48.1%. In addition, in assay [1], the inhibition in vivo at 1 mg/kg worked out at 64.7%. In addition, in assay [1], the inhibition in vivo at 10 mg/kg turned out to be 47.8%. Further, the change in vivo at 0.01 mg/kg in assay [2] (0.01 mg/kg PO) was found to be 3.2%. The change in vivo at 0.1 mg/kg in assay [2] turned out to be 53.3%. The change in vivo at 1 mg/kg in assay [2] amounted to 53.7%. For the same compound, the change in vivo at 10 mg/kg in assay [2] was 25.9%. Besides, the “Uterine EPO (Vmax)” value in assay [3] (0.01 mg/kg PO) is 4.8; in assay [3] (0.1 mg/kg PO) it was 4.8; in assay [3] (1.0 mg/kg PO), 4.8; in assay [3] (10.0 mg/kg PO), 3.6. Besides, the “Distal Femur Metaphysis (X-ray Image Analysis-Gray Score), percent protection relative to ovariectomy” value in assay [4] (0.01 mg/kg oral) is recorded as 34.5%; in assay [4] (0.1 mg/kg oral), 34.1%; in assay [4] (1.0 mg/kg oral), 68.0%; in assay [4] (10.0 mg/kg oral) it was 70.0%. Moreover, the pIC50 in assay [5] is 9.52.
Consider `COc1ccc2c(C(=O)c3ccc(OCCN4CCCCC4)cc3)c(-c3ccc(C(F)(F)F)cc3)sc2c1` [Example 19, [2-(4-Trifluoromethylphenyl)-6-methoxybenzo[b]thien-3-yl][4-[2-(1-piperidinyl)ethoxy]phenyl]methanone], for which, in assay [1], the inhibition in vivo at 0.1 mg/kg came out at 22.3%, the inhibition in vivo at 1 mg/kg stood at 3.1% and the inhibition in vivo at 10 mg/kg is 20.6%. For the same compound, in assay [2], the change in vivo at 0.1 mg/kg came to 10.3%, the change in vivo at 1 mg/kg stood at 15.6% and the change in vivo at 10 mg/kg was determined as 16.6%. For the same compound, in assay [3] (0.1 mg/kg PO), the “Uterine EPO (Vmax)” value is recorded as 6.8. In addition, the “Uterine EPO (Vmax)” value in assay [3] (1.0 mg/kg PO) is reported as 4.3. Also, the “Uterine EPO (Vmax)” value in assay [3] (10.0 mg/kg PO) is on record as 4. Besides, the IC50 result in assay [5] (48 hours) is on record as “Not active”.
Regarding `O=C(c1ccc(OCCN2CCCCC2)cc1)c1c(-c2ccc(C(F)(F)F)cc2)sc2cc(O)ccc12` [Example 20, [2-(4-Trifluoromethylphenyl)-6-hydroxybenzo[b]thien-3-yl][4-[2-(1-piperidinyl)ethoxy]phenyl]methanone], in assay [1], the inhibition in vivo at 0.1 mg/kg was 45.5% and the inhibition in vivo at 1 mg/kg is 47.9%. The inhibition in vivo at 5 mg/kg in assay [1] (5.0 mg/kg PO) was found to be 71.5%. Besides, in assay [2], the change in vivo at 0.1 mg/kg is -2% and the change in vivo at 1 mg/kg turned out to be 7%. Also, the change in vivo at 5 mg/kg in assay [2] (5.0 mg/kg PO) was determined as 37.4%. Besides, in assay [3] (0.1 mg/kg PO), the “Uterine EPO (Vmax)” value was found to be 1.8. For the same compound, the “Uterine EPO (Vmax)” value in assay [3] (1.0 mg/kg PO) was found to be 7. Moreover, in assay [3] (5.0 mg/kg PO), the “Uterine EPO (Vmax)” value turned out to be 16.4. In assay [5], the pIC50 was 6.00.
For the compound `COc1ccc2c(C(=O)c3ccc(OCCN4CCCCC4)cc3)c(-c3cccc(F)c3)sc2c1` [Example 21, [2-(3-Fluorophenyl)-6-methoxybenzo[b]thien-3-yl] [4-[2-(1-piperidinyl)ethoxy]phenyl]methanone], in assay [1], the inhibition in vivo at 0.1 mg/kg was 1.4%, the inhibition in vivo at 1 mg/kg was -12% and the inhibition in vivo at 10 mg/kg was determined as 60.5%. In assay [2], the change in vivo at 0.1 mg/kg was determined as 14.9%, the change in vivo at 1 mg/kg amounted to 4.1% and the change in vivo at 10 mg/kg was found to be 25.3%. Moreover, the “Uterine EPO (Vmax)” value in assay [3] (0.1 mg/kg PO) was determined as 4.5. The “Uterine EPO (Vmax)” value in assay [3] (1.0 mg/kg PO) came out at 4.8. For the same compound, the “Uterine EPO (Vmax)” value in assay [3] (10.0 mg/kg PO) stood at 7.5. The pIC50 in assay [5] is 6.30.
For the compound `O=C(c1ccc(OCCN2CCCCC2)cc1)c1c(-c2cccc(F)c2)sc2cc(O)ccc12` [Example 22, [2-(3-Fluorophenyl)-6-hydroxybenzothien-3-yl] [4-[2-(1-piperidinyl)ethoxy]phenyl]methanone], in assay [1], the inhibition in vivo at 0.1 mg/kg is 18.6%, the inhibition in vivo at 1 mg/kg was 62% and the inhibition in vivo at 10 mg/kg was determined as 67.3%. In assay [2], the change in vivo at 0.1 mg/kg amounted to 53.2%, the change in vivo at 1 mg/kg was found to be 62.8% and the change in vivo at 10 mg/kg was 26.9%. In assay [3] (0.1 mg/kg PO), the “Uterine EPO (Vmax)” value came out at 4.8. For the same compound, in assay [3] (1.0 mg/kg PO), the “Uterine EPO (Vmax)” value stood at 7.8. Further, the “Uterine EPO (Vmax)” value in assay [3] (10.0 mg/kg PO) is on record as 12.0. The pIC50 in assay [5] was 8.60.
On to `Cc1ccccc1-c1sc2cc(O)ccc2c1C(=O)c1ccc(OCCN2CCCCC2)cc1` [Example 23, [2-(2-Methylphenyl)-6-hydroxybenzo[b]thien-3-yl] [4-[2-(1-piperidinyl)ethoxy]phenyl]methanone], for which, in assay [1], the inhibition in vivo at 0.1 mg/kg turned out to be 31.7%, the inhibition in vivo at 1 mg/kg worked out at 38.6% and the inhibition in vivo at 10 mg/kg was 29.3%. For the same compound, in assay [2], the change in vivo at 0.1 mg/kg is 8.5%, the change in vivo at 1 mg/kg was 12% and the change in vivo at 10 mg/kg was determined as 10.9%. Besides, the “Uterine EPO (Vmax)” value in assay [3] (0.1 mg/kg PO) was 12.0. Also, in assay [3] (1.0 mg/kg PO), the “Uterine EPO (Vmax)” value is reported as 8.4. For the same compound, the “Uterine EPO (Vmax)” value in assay [3] (10.0 mg/kg PO) stood at 8.1. For the same compound, in assay [5], the pIC50 was 9.15.
